# Assays:
# [1] = biological target: T1, A2 receptor of the coronary artery (Cavia porcellus, UniProt P46616); test: Coronary blood flow increase (A2 effect), isolated perfused Langendorff heart; design: species or system guinea pig (female Sprague-Dawley guinea pigs); conditions: for affinity and selectivity for A2 adenosine receptors (in words): qualitative statement; for Selectivity (A1/A2): ratio of SQ prolongation ED50 (A1) to coronary flow EC50 (A2)
# T1 construct: perfused hearts from female Sprague-Dawley guinea pigs in an isolated Langendorff heart preparation; from tissue; host or cells: isolated perfused guinea pig heart (Langendorff), coronary vasculature
# Method: (§1) Assays of the cardiovascular potency of the above compounds at the A1 receptors of the SA node and at the A2 receptor of the coronary artery employed perfused hearts from female Sprague-Dawley guinea pigs in an isolated Langendorff heart preparation. An assay consists of an infusion of a spectophotometrically standardized solution of test compound directly into the aortic cannula at rates increasing stepwise every 5 minutes. Collection of the total cardiac effluent during the first half of each infusion period provides a measure of coronary flow (A2 effect). The concentration of test compound required to produce a half-maximal increase in coronary flow is determined. Registration of the ECG assesses the effect of the test compound on SA node (stimulus to Q interval, A1 effect). The concentration of test compound required to produce a half-maximal prolongation of stimulus to Q interval is determined. […] The ratio of A1 and A2 effects of test compounds are calculated to provide the selectivity ratio.
# [2] = biological target: T2, A1 receptors of the SA node (Cavia porcellus, UniProt P47745); test: SQ (stimulus to Q) interval prolongation (A1 effect), isolated perfused Langendorff heart; design: species or system guinea pig (female Sprague-Dawley guinea pigs); conditions: concentration for half-maximal prolongation of stimulus to Q interval; infusion into aortic cannula, stepwise every 5 minutes; read-out: SQ Prolongation (A1) ED50
# T2 construct: perfused hearts from female Sprague-Dawley guinea pigs in an isolated Langendorff heart preparation; from tissue; host or cells: isolated perfused guinea pig heart (Langendorff), nodal/conducting tissue
# T2 sequence (P47745 1-326): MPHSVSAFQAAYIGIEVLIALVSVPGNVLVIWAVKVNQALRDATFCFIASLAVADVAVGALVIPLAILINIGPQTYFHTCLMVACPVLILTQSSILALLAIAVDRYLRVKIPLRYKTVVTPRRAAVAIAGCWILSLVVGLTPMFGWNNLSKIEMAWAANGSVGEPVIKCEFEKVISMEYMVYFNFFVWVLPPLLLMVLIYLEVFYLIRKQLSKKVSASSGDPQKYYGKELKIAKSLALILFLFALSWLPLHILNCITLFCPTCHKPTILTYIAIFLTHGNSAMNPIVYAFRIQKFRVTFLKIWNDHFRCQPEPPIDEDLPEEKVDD
# Method: as §1
# T1 sequence (P46616 whole entry, the tested form may be a part): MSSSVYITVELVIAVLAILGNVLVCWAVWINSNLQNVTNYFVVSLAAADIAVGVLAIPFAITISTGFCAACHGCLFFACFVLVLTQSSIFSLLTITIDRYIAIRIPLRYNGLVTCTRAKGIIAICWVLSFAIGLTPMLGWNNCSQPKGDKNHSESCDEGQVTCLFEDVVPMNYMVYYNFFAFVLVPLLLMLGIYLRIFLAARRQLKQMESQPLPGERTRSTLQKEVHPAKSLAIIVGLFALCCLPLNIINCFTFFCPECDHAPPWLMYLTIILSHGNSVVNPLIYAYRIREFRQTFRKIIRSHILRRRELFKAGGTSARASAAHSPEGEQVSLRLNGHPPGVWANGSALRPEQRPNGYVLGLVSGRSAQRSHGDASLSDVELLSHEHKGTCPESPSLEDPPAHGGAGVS
Compound,affinity and selectivity for A2 adenosine receptors (in words) [1],Selectivity (A1/A2) [1],EC50 [2] [µM],"EC50 ([1]; concentration for half-maximal increase in coronary flow, infusion into aortic cannula, stepwise every 5 minutes) [µM]"
"COc1ccc(CCOc2nc(N)c3ncn([C@@H]4O[C@H](CO)[C@@H](O)[C@H]4O)c3n2)cc1 [Example 10, 2-[2-(4-methoxyphenyl)ethoxy]adenosine]",high affinity and selectivity,14089,19.7,
"Nc1nc(OCCCc2ccccc2)nc2c1ncn2[C@@H]1O[C@H](CO)[C@@H](O)[C@H]1O [Example 1, 2-(3-phenyl-1-propoxy)adenosine]",,326,20,
"COc1cc(CCOc2nc(N)c3ncn([C@@H]4O[C@H](CO)[C@@H](O)[C@H]4O)c3n2)cc(OC)c1OC [Example 12, 2-[2-(3,4,5-trimethoxyphenyl)ethoxy]adenosine]",,2151,47.3,
"CC[C@H](COc1nc(N)c2ncn([C@@H]3O[C@H](CO)[C@@H](O)[C@H]3O)c2n1)c1ccccc1 [Example 19, 2-[(2S)-phenyl-1-butoxy]adenosine]",,872,,
"Nc1nc(OCCCCc2ccccc2)nc2c1ncn2[C@@H]1O[C@H](CO)[C@@H](O)[C@H]1O [Example 20, 2-(4-phenyl-1-butoxy)adenosine]",,743,,
"Cc1ccccc1CCOc1nc(N)c2ncn([C@@H]3O[C@H](CO)[C@@H](O)[C@H]3O)c2n1 [Example 11, 2-[2-(2-methylphenyl)ethoxy]adenosine]",,6610,25.1,
CC[C@@H](COc1nc(N)c2ncn([C@@H]3O[C@H](CO)[C@@H](O)[C@H]3O)c2n1)c1ccccc1 [Example 18],,50,18.8,0.374
"Nc1nc(OCCc2ccccc2)nc2c1ncn2[C@@H]1O[C@H](CO)[C@@H](O)[C@H]1O [Example 7, 2-(2-phenylethoxy)adenosine]",,7126,20,
"Nc1nc(OC2CCCCC2)nc2c1ncn2[C@@H]1O[C@H](CO)[C@@H](O)[C@H]1O [Example 4, 2-Cyclohexyloxyadenosine]",,152,,
"Nc1nc(OCCc2ccc(F)cc2)nc2c1ncn2[C@@H]1O[C@H](CO)[C@@H](O)[C@H]1O [Example 2, 2-[2-(4-fluorophenyl)ethoxy]adenosine]",high affinity and selectivity,29432,25.6,
"Nc1nc(OCCCCCc2ccccc2)nc2c1ncn2[C@@H]1O[C@H](CO)[C@@H](O)[C@H]1O [Example 21, 2-(5-phenyl-1-pentoxy)adenosine]",,,4.6,
"Nc1nc(OCCc2cccs2)nc2c1ncn2[C@@H]1O[C@H](CO)[C@@H](O)[C@H]1O [Example 13, 2-[2-(2-thienyl)ethoxy]adenosine]",,3212,11.9,
"Nc1nc(OCc2ccccc2)nc2c1ncn2[C@@H]1O[C@H](CO)[C@@H](O)[C@H]1O [Example 6, 2-benzyloxyadenosine]",,15,6.31,
"CC(COc1nc(N)c2ncn([C@@H]3O[C@H](CO)[C@@H](O)[C@H]3O)c2n1)c1ccccc1 (stereo partly drawn) [Example 17, 2-(2-phenyl-1-propoxy)adenosine]",,5899,,
"Nc1nc(OCCc2cccc3ccccc23)nc2c1ncn2[C@@H]1O[C@H](CO)[C@@H](O)[C@H]1O [Example 15, 2-[2-(1-naphthyl)ethoxy]adenosine]",,,8.41,
"Nc1nc(OCCc2ccc3ccccc3c2)nc2c1ncn2[C@@H]1O[C@H](CO)[C@@H](O)[C@H]1O [Example 24, 2-[2-(2-naphthyl)ethoxy]adenosine]",,,11.4,
"CCNC(=O)[C@H]1O[C@@H](n2cnc3c(N)nc(OCCc4ccccc4)nc32)[C@H](O)[C@@H]1O [Example 22, 2-(2-phenyl)ethoxy-5'-N-ethylcarboxamidoadenosine]",high affinity and selectivity,11509,,
"COc1ccccc1CCOc1nc(N)c2ncn([C@@H]3O[C@H](CO)[C@@H](O)[C@H]3O)c2n1 [Example 8, 2-[2-(2-methoxyphenyl)ethoxy]adenosine]",,1109,35.5,
"Nc1nc(OC2CCCC2)nc2c1ncn2[C@@H]1O[C@H](CO)[C@@H](O)[C@H]1O [Example 3, 2-Cyclopentyloxyadenosine]",,866,,
"Nc1nc(OCCc2c[nH]c3ccccc23)nc2c1ncn2[C@@H]1O[C@H](CO)[C@@H](O)[C@H]1O [Example 16, 2-[2-(3-indolyl)ethoxy]adenosine]",,,14.1,
"COc1cccc(CCOc2nc(N)c3ncn([C@@H]4O[C@H](CO)[C@@H](O)[C@H]4O)c3n2)c1 [Example 9, 2-[2-(3-methoxyphenyl)ethoxy]adenosine]",,6238,16.2,

# Reference: patent USRE36494E, “2-aralkoxy and 2-alkoxy adenosine derivatives as coronary vasodilators and antihypertensive agents” (Discovery Therapeutics, Inc., priority 1993, dated 2000)
